Reference: PubChem BioAssay AID330 (DTP/NCI, 2004)
“And” between values parts separate entries of the source, which are not always exact repeats. Identical values can stand only once. Inconclusive results and toxic doses are left out. How the source made its calls: active means survival T/C of 150% or more; inactive means T/C below 125% in these data.

Test system: P388 leukemia ip, CD2F1 mice, survival T/C
Assay: NCI In Vivo Anticancer Drug Screen. Data for tumor model P388 Leukemia (intraperitoneal) in CD2F1 (CDF1) mice
Details: endpoint: median survival time, higher = longer survival
In short: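 Mice carrying the transplanted tumor received test compound or vehicle. Survival was recorded in each group, and the value is the treated-group measurement divided by that of the vehicle-treated control group.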

[1] = dose: 25.0 mg/kg/injection, schedule: Q01DX009 (ip), vehicle: saline
[2] = dose: 50.0 mg/kg/injection, schedule: Q01DX009 (ip), vehicle: saline with Tween-80
[3] = dose: 6.25 mg/kg/injection, schedule: Q01DX005 (ip), vehicle: saline with Tween-80
[4] = dose: 12.5 mg/kg/injection, schedule: Q01DX005 (ip), vehicle: saline with Tween-80
[5] = dose: 25.0 mg/kg/injection, schedule: Q01DX005 (ip), vehicle: saline with Tween-80
[6] = dose: 50.0 mg/kg/injection, schedule: Q01DX005 (ip), vehicle: saline with Tween-80

Measured: T/C

Cc1cc(O)c2c(c1O)C(=O)C13C(=C2O)C(=O)C2C(O)C1C1C(O)C3C(=O)C3=C(O)c4c(O)cc(C)c(O)c4C(=O)C321 (stereo unspecified)
inactive: dose: 0.75 mg/kg/injection, schedule: Q01DX005 (ip), vehicle: saline with Tween-80 100 % of control and 106 % of control | dose: 0.78 mg/kg/injection, schedule: Q01DX009 (ip), vehicle: saline with Tween-80 116 % of control | dose: 1.5 mg/kg/injection, schedule: Q01DX005 (ip), vehicle: saline with Tween-80 111 % of control and 115 % of control | dose: 3.0 mg/kg/injection, schedule: Q01DX005 (ip), vehicle: saline with Tween-80 115 % of control

C(=Nc1ccc2ccccc2c1)Nc1ccc2ccccc2c1.[Cu+2]
inactive: [1] 115 % of control | [2] 117 % of control

O=C1C(=C2C=CN(CCCN3CCCC3)C=C2)C(=O)c2ccccc21
inactive: dose: 50.0 mg/kg/injection, schedule: Q01DX009 (ip), vehicle: Klucel (hydroxypropylcellulose) (HPC) 90 % of control | dose: 100.0 mg/kg/injection, schedule: Q01DX009 (ip), vehicle: Klucel (hydroxypropylcellulose) (HPC) 96 % of control | dose: 200.0 mg/kg/injection, schedule: Q01DX009 (ip), vehicle: Klucel (hydroxypropylcellulose) (HPC) 95 % of control

CC12C(=Nc3ccccc31)CCc1ccccc12 (stereo unspecified)
inactive: dose: 50.0 mg/kg/injection, schedule: Q01DX005 (ip), vehicle: saline + Tween-80 + alcohol 99 % of control | dose: 100.0 mg/kg/injection, schedule: Q01DX005 (ip), vehicle: saline + Tween-80 + alcohol 100 % of control | dose: 200.0 mg/kg/injection, schedule: Q01DX005 (ip), vehicle: saline + Tween-80 + alcohol 100 % of control

Fc1ccc(CSC(=S)Nc2ccc(F)cc2)cc1
inactive: dose: 50.0 mg/kg/injection, schedule: Q01DX009 (ip), vehicle: suspension in saline 108 % of control | dose: 100.0 mg/kg/injection, schedule: Q01DX009 (ip), vehicle: suspension in saline 103 % of control | dose: 200.0 mg/kg/injection, schedule: Q01DX009 (ip), vehicle: suspension in saline 108 % of control

COc1ccc(Cc2c3ccccc3cc[n+]2Cc2ccccc2)cc1OC
inactive: [3] 103 % of control | [4] 111 % of control | [5] 111 % of control | [6] 114 % of control

CC(CCCN)Nc1cc2c(c3cccnc13)OCCO2 (stereo unspecified)
inactive: dose: 6.25 mg/kg/injection, schedule: Q01DX009 (ip), vehicle: saline 90 % of control | dose: 12.5 mg/kg/injection, schedule: Q01DX009 (ip), vehicle: saline 86 % of control | [1] 100 % of control

CC(=O)N1CCCC2=C1CCCCCCCCCC2
inactive: dose: 100.0 mg/kg/injection, schedule: Q04DX003 (ip), vehicle: saline 99 % of control | dose: 200.0 mg/kg/injection, schedule: Q04DX003 (ip), vehicle: saline 105 % of control | dose: 400.0 mg/kg/injection, schedule: Q04DX003 (ip), vehicle: saline 96 % of control

Cc1cnc(Sc2ncccn2)c([N+](=O)[O-])c1
inactive: dose: 50.0 mg/kg/injection, schedule: Q01DX009 (ip), vehicle: saline 101 % of control | dose: 100.0 mg/kg/injection, schedule: Q01DX009 (ip), vehicle: saline 104 % of control | dose: 200.0 mg/kg/injection, schedule: Q01DX009 (ip), vehicle: saline 104 % of control

CCOC1OCN(c2ccccc2)CC1(C)C (stereo unspecified)
inactive: [2] 115 % of control | dose: 100.0 mg/kg/injection, schedule: Q01DX009 (ip), vehicle: saline with Tween-80 114 % of control | dose: 200.0 mg/kg/injection, schedule: Q01DX009 (ip), vehicle: saline with Tween-80 108 % of control | dose: 400.0 mg/kg/injection, schedule: Q01DX009 (ip), vehicle: saline with Tween-80 117 % of control

C#CC(C)(CC(C)C)OCCN(CC)CC (stereo unspecified)
inactive: [3] 106 % of control | [4] 104 % of control | [5] 104 % of control

O=C(CN1C(=O)NC(c2ccccc2)(c2ccccc2)C1=O)NCCN1CCOCC1
inactive: dose: 60.0 mg/kg/injection, schedule: Q01DX005 (ip), vehicle: saline with Tween-80 97 % of control | dose: 120.0 mg/kg/injection, schedule: Q01DX005 (ip), vehicle: saline with Tween-80 96 % of control | dose: 240.0 mg/kg/injection, schedule: Q01DX005 (ip), vehicle: saline with Tween-80 97 % of control

Cc1c(NC(=S)Nc2ccccc2)c(=O)n(-c2ccccc2)n1C
inactive: [6] 93 % of control | dose: 100.0 mg/kg/injection, schedule: Q01DX005 (ip), vehicle: saline with Tween-80 93 % of control | dose: 200.0 mg/kg/injection, schedule: Q01DX005 (ip), vehicle: saline with Tween-80 89 % of control
